Settings: 283.15 K, Liquid, Vibrating tube method

CCCCC(=O)OCC(COC(=O)CCCC)(COC(=O)CCCC)COC(=O)CCCC [pentaerythritol tetrapentanoate]
Settings	mass density [kg/m3]
27222 kPa	1042.2
27265 kPa	1042.3
27300 kPa	1042.3
27336 kPa	1042.4
27379 kPa	1042.4
27415 kPa	1042.3
27450 kPa	1042.4
27493 kPa	1042.5
27528 kPa	1042.4
27564 kPa	1042.3
27608 kPa	1042.5
27645 kPa	1042.6
27681 kPa	1042.5
27718 kPa	1042.5
27762 kPa	1042.5
27798 kPa	1042.5
27842 kPa	1042.6
27879 kPa	1042.6
27916 kPa	1042.6
27961 kPa	1042.6
27998 kPa	1042.8
28035 kPa	1042.7
28074 kPa	1042.8
28121 kPa	1042.7
28158 kPa	1042.7
28196 kPa	1042.8
28241 kPa	1042.8
28279 kPa	1042.8
28316 kPa	1042.8
28354 kPa	1042.8
28400 kPa	1042.8
28438 kPa	1043
28477 kPa	1043
28524 kPa	1043
28563 kPa	1043
28610 kPa	1043
28652 kPa	1043
28691 kPa	1043.1
28730 kPa	1043.1
28770 kPa	1043
28816 kPa	1043.1
28856 kPa	1043.1
28896 kPa	1043.1
28944 kPa	1043.2
28984 kPa	1043.2
29024 kPa	1043.1
29072 kPa	1043.3
29112 kPa	1043.2
29153 kPa	1043.3
29194 kPa	1043.3
29244 kPa	1043.3
29285 kPa	1043.3
29333 kPa	1043.4
29375 kPa	1043.4
29416 kPa	1043.4
29458 kPa	1043.4
29508 kPa	1043.4
29549 kPa	1043.5
29592 kPa	1043.4
29642 kPa	1043.4
29685 kPa	1043.6
29737 kPa	1043.6
29782 kPa	1043.6
29825 kPa	1043.6
29869 kPa	1043.7
29926 kPa	1043.7
29972 kPa	1043.7
30019 kPa	1043.7
30074 kPa	1043.7
30106 kPa	1043.7
30144 kPa	1043.9
30175 kPa	1043.8
30205 kPa	1043.8
30243 kPa	1043.8
30275 kPa	1043.9
30307 kPa	1043.9
30340 kPa	1044
30379 kPa	1043.8
30413 kPa	1043.9
30453 kPa	1043.9
30485 kPa	1044
30517 kPa	1044
30549 kPa	1044
30588 kPa	1043.9
30621 kPa	1044
30653 kPa	1044.2
30692 kPa	1044
30724 kPa	1044.1
30757 kPa	1044.1
30795 kPa	1044.1
30828 kPa	1044.1
30860 kPa	1044.2
30899 kPa	1044.1
30932 kPa	1044.2
30965 kPa	1044.2
31004 kPa	1044.3
31038 kPa	1044.2
31071 kPa	1044.3
31110 kPa	1044.2
31144 kPa	1044.3
31178 kPa	1044.4
31218 kPa	1044.3
31252 kPa	1044.4
31285 kPa	1044.5
31325 kPa	1044.3
31359 kPa	1044.5
31393 kPa	1044.4
31427 kPa	1044.5
31468 kPa	1044.5
31503 kPa	1044.5
31544 kPa	1044.5
31578 kPa	1044.5
31613 kPa	1044.6
31650 kPa	1044.6
31685 kPa	1044.5
31726 kPa	1044.7
31762 kPa	1044.6
31797 kPa	1044.7
31839 kPa	1044.7
31874 kPa	1044.7
31909 kPa	1044.7
31951 kPa	1044.8
31987 kPa	1044.8
32023 kPa	1044.7
32066 kPa	1044.8
32103 kPa	1044.7
32141 kPa	1044.8
32177 kPa	1044.8
32214 kPa	1044.9
32257 kPa	1044.9
32294 kPa	1044.9
32337 kPa	1044.8
32373 kPa	1045.1
32410 kPa	1044.9
32447 kPa	1044.9
32491 kPa	1045
32528 kPa	1045
32572 kPa	1045
32609 kPa	1045.1
32647 kPa	1045.2
32691 kPa	1045.2
32728 kPa	1045.1
32766 kPa	1045.2
32804 kPa	1045.1
32850 kPa	1045.1
32887 kPa	1045.2
32925 kPa	1045.2
32971 kPa	1045.2
33008 kPa	1045.2
33055 kPa	1045.3
33093 kPa	1045.2
33133 kPa	1045.3
33172 kPa	1045.3
33218 kPa	1045.3
33258 kPa	1045.4
33297 kPa	1045.4
33344 kPa	1045.4
33383 kPa	1045.5
33430 kPa	1045.5
33471 kPa	1045.4
